Measured values reported in patent publication US7820623B2 (priority 2006, dated 2010).
Like-named read-outs stand apart in the source and are kept apart here. Bridge positions count the residues as written; N and C are the ends. Peptide text beside a SMILES is read from it.

What was measured:
[1] = system: thapsigargin-induced IL-2 production in human whole blood
[2] = system: thapsigargin-induced IFN-g production in human whole blood; assay type: cell-based
[3] = read-out: Analogue Activity (IC50) WB/IL-2
[4] = read-out: Analogue Activity (IC50) WB/IFNg

Compound | IC50 [1, 3] | IC50 [2, 4] | further results
CC[C@H](C)[C@@H]1NC(=O)[C@H](CCCCN)NC(=O)[C@@H](NC(=O)[C@H](CCCCN)NC(=O)[C@@H](NC(=O)[C@H](CC(N)=O)NC(=O)[C@H](CCCNC(=N)N)NC(=O)[C@@H](NC(=O)[C@@H](NC(=O)CN)C(C)C)[C@@H](C)CC)C(C)C)CSSC[C@@H]2NC(=O)[C@H](CCCCN)NC(=O)CNC(=O)[C@H](Cc3ccccc3)NC(=O)[C@H](CCCNC(=N)N)NC(=O)[C@H](CCSC)NC(=O)CNC(=O)[C@H](C)NC(=O)[C@H](CCCCN)NC(=O)[C@H](CCCCN)NC(=O)[C@@H]3CSSC[C@@H](C(=O)N[C@H](C(=O)N4CCC[C@H]4C(=O)N[C@@H](CCCCN)C(=O)O)[C@@H](C)O)NC(=O)[C@H](Cc4c[nH]cn4)NC(=O)[C@H](CSSC[C@H](NC(=O)[C@H](CCC(N)=O)NC(=O)[C@H](CCCNC(=N)N)NC(=O)[C@H](CO)NC1=O)C(=O)N[C@@H](CC(C)C)C(=O)N[C@@H](CCC(=O)O)C(=O)N1CCC[C@H]1C(=O)N3)NC(=O)[C@H](CCCCN)NC(=O)CNC(=O)[C@H](CC(N)=O)NC(=O)[C@H](CCSC)NC2=O [I4R] (H-GVIRNVKCKISRQCLEPCKKAGMRFGKCMNGKCHCTPK-OH; disulfide 8-28, 14-33, 18-35) | 0.168 nM | 0.175 nM | 
CC[C@H](C)[C@@H]1NC(=O)[C@H](CCCCN)NC(=O)[C@@H](NC(=O)[C@H](CCC(=O)O)NC(=O)[C@@H](NC(=O)[C@H](CC(N)=O)NC(=O)[C@@H](NC(=O)[C@@H](NC(=O)[C@@H](NC(=O)CN)C(C)C)[C@@H](C)CC)[C@@H](C)CC)C(C)C)CSSC[C@@H]2NC(=O)[C@H](CCCCN)NC(=O)CNC(=O)[C@H](Cc3ccccc3)NC(=O)[C@H](CCCNC(=N)N)NC(=O)[C@H](CCSC)NC(=O)CNC(=O)[C@H](C)NC(=O)[C@H](CCCCN)NC(=O)[C@H](CCCCN)NC(=O)[C@@H]3CSSC[C@@H](C(=O)N[C@H](C(=O)N4CCC[C@H]4C(=O)N[C@@H](CCCCN)C(=O)O)[C@@H](C)O)NC(=O)[C@H](Cc4c[nH]cn4)NC(=O)[C@H](CSSC[C@H](NC(=O)[C@H](CCC(N)=O)NC(=O)[C@H](CCCNC(=N)N)NC(=O)[C@H](CO)NC1=O)C(=O)N[C@@H](CC(C)C)C(=O)N[C@@H](CCC(=O)O)C(=O)N1CCC[C@H]1C(=O)N3)NC(=O)[C@H](CCCCN)NC(=O)CNC(=O)[C@H](CC(N)=O)NC(=O)[C@H](CCSC)NC2=O [K7E] (H-GVIINVECKISRQCLEPCKKAGMRFGKCMNGKCHCTPK-OH; disulfide 8-28, 14-33, 18-35) | 0.058 nM | 0.068 nM | 
CC[C@H](C)[C@@H]1NC(=O)[C@H](CCCCN)NC(=O)[C@@H](NC(=O)[C@H](CCCCN)NC(=O)[C@@H](NC(=O)[C@H](CC(N)=O)NC(=O)[C@@H](NC(=O)[C@@H](NC(=O)[C@@H](NC(=O)CN)C(C)C)[C@@H](C)CC)[C@@H](C)CC)C(C)C)CSSC[C@@H]2NC(=O)[C@H](CCCCN)NC(=O)CNC(=O)[C@H](Cc3ccccc3)NC(=O)[C@H](CCCNC(=N)N)NC(=O)[C@H](CCSC)NC(=O)CNC(=O)[C@H](C)NC(=O)[C@H](CCCCN)NC(=O)[C@H](CCCCN)NC(=O)[C@@H]3CSSC[C@@H](C(=O)N[C@H](C(=O)N4CCC[C@H]4C(=O)N[C@@H](CCCCN)C(=O)O)[C@@H](C)O)NC(=O)[C@H](CCCNC(=N)N)NC(=O)[C@H](CSSC[C@H](NC(=O)[C@H](CCC(N)=O)NC(=O)[C@H](CCCNC(=N)N)NC(=O)[C@H](CO)NC1=O)C(=O)N[C@@H](CC(C)C)C(=O)N[C@@H](CCC(=O)O)C(=O)N1CCC[C@H]1C(=O)N3)NC(=O)[C@H](CCCCN)NC(=O)CNC(=O)[C@H](CC(N)=O)NC(=O)[C@H](CCSC)NC2=O [H34R] (H-GVIINVKCKISRQCLEPCKKAGMRFGKCMNGKCRCTPK-OH; disulfide 8-28, 14-33, 18-35) | 0.092 nM | 0.108 nM | 
CC[C@H](C)[C@@H]1NC(=O)[C@H](CCCCN)NC(=O)[C@@H](NC(=O)[C@H](CCCCN)NC(=O)[C@@H](NC(=O)[C@H](CC(N)=O)NC(=O)[C@@H](NC(=O)[C@@H](NC(=O)[C@@H](NC(=O)CN)C(C)C)[C@@H](C)CC)[C@@H](C)CC)C(C)C)CSSC[C@@H]2NC(=O)[C@H](CCCCN)NC(=O)CNC(=O)[C@H](Cc3ccccc3)NC(=O)[C@H](CCCNC(=N)N)NC(=O)[C@H](CCSC)NC(=O)CNC(=O)[C@H](C)NC(=O)[C@H](CCCCN)NC(=O)[C@H](C)NC(=O)[C@@H]3CSSC[C@@H](C(=O)N[C@H](C(=O)N4CCC[C@H]4C(=O)N[C@@H](CCCCN)C(=O)O)[C@@H](C)O)NC(=O)[C@H](Cc4c[nH]cn4)NC(=O)[C@H](CSSC[C@H](NC(=O)[C@H](CCC(N)=O)NC(=O)[C@H](CCCNC(=N)N)NC(=O)[C@H](CO)NC1=O)C(=O)N[C@@H](CC(C)C)C(=O)N[C@@H](CCC(=O)O)C(=O)N1CCC[C@H]1C(=O)N3)NC(=O)[C@H](CCCCN)NC(=O)CNC(=O)[C@H](CC(N)=O)NC(=O)[C@H](CCSC)NC2=O [K19A] (H-GVIINVKCKISRQCLEPCAKAGMRFGKCMNGKCHCTPK-OH; disulfide 8-28, 14-33, 18-35) | 0.163 nM | 0.163 nM | 
GVIINVKCKISRQCLEPCKAAGMRFGKCMNGKCHCTPK [Ala-20 (SEQ ID No: 1416)] |  |  | IC50 ([1]; read-out: Average IC50 IL-2): 0.379 nM; IC50 ([2]; read-out: Average IC50 IFNg): 0.379 nM
GGGGS-Osk1 (GGGGSGVIINVKCKISRQCLEPCKKAGMRFGKCMNGKCHCTPK) |  |  | IC50 ([1]; read-out: WB/IL-2 (IC50)): 1.36 nM; IC50 ([2]; read-out: WB/IFNg (IC50)): 2.2 nM
CC[C@H](C)[C@@H]1NC(=O)[C@H](CCCCN)NC(=O)[C@@H](NC(=O)[C@H](CCCCN)NC(=O)[C@@H](NC(=O)[C@H](CC(N)=O)NC(=O)[C@H](CCC(=O)O)NC(=O)[C@@H](NC(=O)[C@@H](NC(=O)CN)C(C)C)[C@@H](C)CC)C(C)C)CSSC[C@@H]2NC(=O)[C@H](CCCCN)NC(=O)CNC(=O)[C@H](Cc3ccccc3)NC(=O)[C@H](CCCNC(=N)N)NC(=O)[C@H](CCSC)NC(=O)CNC(=O)[C@H](C)NC(=O)[C@H](CCCCN)NC(=O)[C@H](CCCCN)NC(=O)[C@@H]3CSSC[C@@H](C(=O)N[C@H](C(=O)N4CCC[C@H]4C(=O)N[C@@H](CCCCN)C(=O)O)[C@@H](C)O)NC(=O)[C@H](Cc4c[nH]cn4)NC(=O)[C@H](CSSC[C@H](NC(=O)[C@H](CCC(N)=O)NC(=O)[C@H](CCCNC(=N)N)NC(=O)[C@H](CO)NC1=O)C(=O)N[C@@H](CC(C)C)C(=O)N[C@@H](CCC(=O)O)C(=O)N1CCC[C@H]1C(=O)N3)NC(=O)[C@H](CCCCN)NC(=O)CNC(=O)[C@H](CC(N)=O)NC(=O)[C@H](CCSC)NC2=O [I4E] (H-GVIENVKCKISRQCLEPCKKAGMRFGKCMNGKCHCTPK-OH; disulfide 8-28, 14-33, 18-35) | 0.218 nM | 0.191 nM | 
CC[C@H](C)[C@@H]1NC(=O)[C@H](CCCCN)NC(=O)[C@@H](NC(=O)[C@H](CCCCN)NC(=O)[C@@H](NC(=O)[C@H](CC(N)=O)NC(=O)[C@@H](NC(=O)[C@@H](NC(=O)[C@@H](NC(=O)CN)C(C)C)[C@@H](C)CC)[C@@H](C)CC)C(C)C)CSSC[C@@H]2NC(=O)[C@H](CCCNC(=N)N)NC(=O)CNC(=O)[C@H](Cc3ccccc3)NC(=O)[C@H](CCCNC(=N)N)NC(=O)[C@H](CCSC)NC(=O)CNC(=O)[C@H](C)NC(=O)[C@H](CCCCN)NC(=O)[C@H](CCCCN)NC(=O)[C@@H]3CSSC[C@@H](C(=O)N[C@H](C(=O)N4CCC[C@H]4C(=O)N[C@@H](CCCCN)C(=O)O)[C@@H](C)O)NC(=O)[C@H](Cc4c[nH]cn4)NC(=O)[C@H](CSSC[C@H](NC(=O)[C@H](CCC(N)=O)NC(=O)[C@H](CCCNC(=N)N)NC(=O)[C@H](CO)NC1=O)C(=O)N[C@@H](CC(C)C)C(=O)N[C@@H](CCC(=O)O)C(=O)N1CCC[C@H]1C(=O)N3)NC(=O)[C@H](CCCCN)NC(=O)CNC(=O)[C@H](CC(N)=O)NC(=O)[C@H](CCSC)NC2=O [K27R] (H-GVIINVKCKISRQCLEPCKKAGMRFGRCMNGKCHCTPK-OH; disulfide 8-28, 14-33, 18-35) | 15.1 nM | 10.7 nM | 
CC[C@H](C)[C@@H]1NC(=O)[C@H](CCCCN)NC(=O)[C@@H](NC(=O)[C@H](CCCCN)NC(=O)[C@@H](NC(=O)[C@H](CCCNC(=N)N)NC(=O)[C@@H](NC(=O)[C@@H](NC(=O)[C@@H](NC(=O)CN)C(C)C)[C@@H](C)CC)[C@@H](C)CC)C(C)C)CSSC[C@@H]2NC(=O)[C@H](CCCCN)NC(=O)CNC(=O)[C@H](Cc3ccccc3)NC(=O)[C@H](CCCNC(=N)N)NC(=O)[C@H](CCSC)NC(=O)CNC(=O)[C@H](C)NC(=O)[C@H](CCCCN)NC(=O)[C@H](CCCCN)NC(=O)[C@@H]3CSSC[C@@H](C(=O)N[C@H](C(=O)N4CCC[C@H]4C(=O)N[C@@H](CCCCN)C(=O)O)[C@@H](C)O)NC(=O)[C@H](Cc4c[nH]cn4)NC(=O)[C@H](CSSC[C@H](NC(=O)[C@H](CCC(N)=O)NC(=O)[C@H](CCCNC(=N)N)NC(=O)[C@H](CO)NC1=O)C(=O)N[C@@H](CC(C)C)C(=O)N[C@@H](CCC(=O)O)C(=O)N1CCC[C@H]1C(=O)N3)NC(=O)[C@H](CCCCN)NC(=O)CNC(=O)[C@H](CC(N)=O)NC(=O)[C@H](CCSC)NC2=O [N5R] (H-GVIIRVKCKISRQCLEPCKKAGMRFGKCMNGKCHCTPK-OH; disulfide 8-28, 14-33, 18-35) | 0.095 nM | 0.12 nM | 
CC[C@H](C)[C@@H]1NC(=O)[C@H](CCCCN)NC(=O)[C@@H](NC(=O)[C@H](CCCCN)NC(=O)[C@@H](NC(=O)[C@H](C)NC(=O)[C@@H](NC(=O)[C@@H](NC(=O)[C@@H](NC(=O)CN)C(C)C)[C@@H](C)CC)[C@@H](C)CC)C(C)C)CSSC[C@@H]2NC(=O)[C@H](CCCCN)NC(=O)CNC(=O)[C@H](Cc3ccccc3)NC(=O)[C@H](CCCNC(=N)N)NC(=O)[C@H](CCSC)NC(=O)CNC(=O)[C@H](C)NC(=O)[C@H](CCCCN)NC(=O)[C@H](CCCCN)NC(=O)[C@@H]3CSSC[C@@H](C(=O)N[C@H](C(=O)N4CCC[C@H]4C(=O)N[C@@H](CCCCN)C(=O)O)[C@@H](C)O)NC(=O)[C@H](Cc4c[nH]cn4)NC(=O)[C@H](CSSC[C@H](NC(=O)[C@H](CCC(N)=O)NC(=O)[C@H](CCCNC(=N)N)NC(=O)[C@H](CO)NC1=O)C(=O)N[C@@H](CC(C)C)C(=O)N[C@@H](CCC(=O)O)C(=O)N1CCC[C@H]1C(=O)N3)NC(=O)[C@H](CCCCN)NC(=O)CNC(=O)[C@H](CC(N)=O)NC(=O)[C@H](CCSC)NC2=O [N5A] (H-GVIIAVKCKISRQCLEPCKKAGMRFGKCMNGKCHCTPK-OH; disulfide 8-28, 14-33, 18-35) | 0.0679 nM | 0.067 nM | 
GVIINVKCKISRQCLEPCKKAGMRFGKCANGKCHCTPK [Ala-29 (SEQ ID No: 1424)] |  |  | IC50 ([1]; read-out: Average IC50 IL-2): 0.447 nM; IC50 ([2]; read-out: Average IC50 IFNg): 0.292 nM
